Source: patent US20100233737A1, “MARKER SPECIFIC TO AN OXIDATIVE DEGRADATION OF TISSUES CONTAINING TYPE III COLLAGEN, MEANS AND METHODS AND KITS FOR THE DIAGNOSIS, MONITORING OR PROGNOSIS OF PATHOLOGIES TARGETED BY THIS MARKER” (priority 2006, published 2010)
No end group written: not given here.

Test system: antiserum anti-IIINys (polyclonal, directed against SEQ ID No. 2)
Test: Competitive ELISA, specificity of the antiserum anti IIINys vis-à-vis different peptides
Assay type: binding, rabbit
Settings: biotinylated IIINys coated on plate, competitor peptide in solution
Experimental: FIG. 4 illustrates the specificity of the polyclonal antibodies prepared vis-à-vis the IIINys, with respect to other synthetic peptides. B/B0 represents the ratio between the quantity of anti-IIINys antibodies fixed to the antigen fixed (“coated”) onto the plate in the presence of competitor compound (B) and in the absence of competitor compound (B0).
Rabbits were injected by intra-peritoneal route with the peptide conjugated to KLH emulsified with Freund's complete adjuvant. This operation was repeated 3 times over three months using the same peptide with Freund's incomplete adjuvant. After each injection a sample of rabbit blood was taken. This blood was left to coagulate for 30 minutes and the whole sample was centrifuged for 10 minutes at 2500 rpm in order to recover the serum. Ten days after the last injection, the rabbits were sacrificed and all the blood was recovered. Each serum sample was titrated by ELISA technique in the presence of the synthetic peptide. The antiserum with the best titre was selected for the finalization of the competitive ELISA (Harlow and Lane, 1988a).
The peptide conjugated to the biotin diluted with the coating buffer is adsorbed on plates avidinated for 2 hours at ambient temperature. After washing, 50 μl of antisera diluted to the optimum titre are added to 50 μl of standard (synthetic peptide diluted in buffer) or to 50 μl of samples to be assayed and are left to incubate overnight at 4° C. After washing, 100 μl of secondary antibodies coupled to the peroxidase directed against the rabbit immunoglobulins are added over one hour at ambient temperature. The wells are washed and 100 μl of substrate (TMB) are added. The reaction is stopped with 100 μl of H2SO4.
The antiserum selected was tested vis-à-vis different peptides according to the ELISA method described previously in order to verify its specificity (FIG. 4). The peptides tested are: the peptide IIINys of sequence SEQ ID No. 2 (the immunogenic peptide), the peptide of sequence SEQ ID No. 3 (the peptide IIINys with only the first tyrosine nitrosylated), the peptide of sequence SEQ ID No. 4 (the peptide IIINys with only the second tyrosine nitrosylated), the peptide of sequence SEQ ID No. 9 (the peptide IIINys with an additional amino acid on the N-terminal side), the peptide of sequence SEQ ID No. 8 (the peptide IIINys with its tyrosines non nytrosylated), 3-nitrotyrosine (FIG. 2), with the nitrosylated BSA of sequence SEQ ID No. 11.

Molecule | competition with the peptide IIINys (SEQ ID No. 2) adsorbed on the plate for the antiserum (B/B0, FIG. 4)
N[C@@H](Cc1ccc(O)c([N+](=O)[O-])c1)C(=O)O [3-nitrotyrosine, reference compound] | not capable of entering into competition
PQY*DSY*DVKSG (PQYDSYDVKSG; not fully specified (residues 3, 6); printed as PQY*DSY*DVKSG) [SEQ ID No. 9, the peptide IIINys with an additional amino acid on the N-terminal side, reference compound] | not capable of entering into competition
QY*DSYDVKSG [SEQ ID No. 3, the peptide IIINys with only the first tyrosine nitrosylated] | less affinity than for the peptide IIINys
QYDSY*DVKSG [SEQ ID No. 4, the peptide IIINys with only the second tyrosine nitrosylated] | less affinity than for the peptide IIINys
QYDSYDVKSG [SEQ ID No. 8, the peptide IIINys with its tyrosines non nitrosylated] | not capable of entering into competition
